According to patent US7671019B2, “3-deoxyglucosone and skin” (Dynamis Therapeutics, Inc., priority 2002, dated 2010):
Values joined by “and” are separate entries in the source; they are usually repeats but may differ in a detail not shown here. Equal entries are not always repeated.

Legend:
[1] = target: T1, Calf skin collagen Type 1 (Bos taurus, UniProt P02453+P02465); assay: 3DG-induced collagen crosslinking, CNBr digestion and SDS-PAGE; format: biochemical; details: 37° C., 24 hours
T1 construct: Calf skin collagen Type 1 (1.3 mg; Sigma); purchased Sigma; host or cells: calf skin (tissue-derived)
Method: Collagen type I was treated with 3DG in the presence or absence of arginine. The samples were subjected to cyanogen bromide (CNBr) digestion, electrophoresed on a 16.5% SDS Tris-tricine gel, and then the gels were processed using silver stain techniques to visualize the proteins. Lane 1 contains molecular weight marker standards. Lanes 2 and 5 contain 10 and 20 μl of the collagen mixture following CNBr digestion. Lanes 3 and 6 contain the collagen mixture treated with 3DG and then digested with CNBr, and loaded at 10 and 20 μl, respectively. Lanes 4 and 7 contain the mixture of collagen incubated with 5 mM 3DG and 10 mM arginine and then digested with CNBr, and loaded at 10 and 20 μl, respectively.
Collagen I was incubated in the presence or absence of 3DG in vitro. Calf skin collagen Type 1 (1.3 mg; Sigma) was incubated in 20 mM Na-phosphate buffer, pH 7.25, either alone, with 5 mM 3DG, or with 5 mM 3DG plus 10 mM arginine, in a total volume of 1 ml at 37° C. for 24 hours and then frozen and lyophilized. The residue was dissolved in 0.5 ml of 70% formic acid and cyanogen bromide was added (20:1, w/w). This solution was incubated at 30° C. for 18 hours. […] The extent of collagen crosslinking was determined by applying equal volumes of sample and analyzing by SDS-PAGE electrophoresis (16.5% Tris-tricine gel), as determined by the effects of 3DG on the migration of collagen.

[2] = Skin elasticity (vacuum pull needed to displace skin) in STZ-diabetic and normal rats; format: in vivo; details: 50 mg/kg daily subcutaneous, eight weeks
Method: Experiments were performed to determine the effects of DYN 12 on the loss of skin elasticity associated with diabetes. To this end, two groups of STZ-diabetic rats and two groups of normal rats were subjected to treatment with DYN 12 or saline. One group of STZ-diabetic rats (n=9) received daily subcutaneous injections of DYN 12 at 50 mg/kg for eight weeks, as did one group of normal rats (n=6). A group of control diabetic rats (n=10) and a group of normal rats (n=6) received saline instead of DYN 12. One rat was removed from the diabetic DYN 12 group after 2 weeks because its blood glucose readings were inconsistent (too low) with other diabetic rats.
A non-invasive procedure based on CyberDERM, Inc. technology utilizing a skin elasticity measurement device was used to test the effects of DYN 12 treatment on skin elasticity. The procedure provides for non-invasive measurement of skin elasticity based upon the amount of vacuum pull required to displace skin. A suction cup probe is adhered to an area of shaved skin in order to form an airtight seal. Then, a vacuum is applied to the area of the skin inside the suction cup until the skin is displaced past a sensor located inside the probe. Accordingly, the more pressure that is required to displace the skin, the less elastic the skin is.

3DG = assay: Plasma 3DG levels in diabetic and non-diabetic rats treated with 3-O-methyl sorbitollysine; format: in vivo; details: 50 mg/kg injections, within one week
Method: A cohort of twelve diabetic rats was divided into two groups of six. The first group received saline-only injections, and the second received injections of 3-O-methyl sorbitollysine (50 mg/kg body weight) in saline solution. The same procedure was conducted on a cohort of twelve non-diabetic rats.

[3] = Locus of 3-O-methyl sorbitollysine uptake in vivo (tissue, urine, plasma analysis); parameters: species or system rats
Method: Six rats were injected intraperitoneally with […] (4.4 mg) of 3-O-methyl sorbitollysine. Urine was collected for 3 hours, after which the rats were sacrificed. The tissues to be analyzed were removed and freeze clamped in liquid nitrogen. Perchloric acid extracts of the tissues were used for metabolite analysis. The tissues examined were taken from the brain, heart, muscle, sciatic nerve, spleen, pancreas, liver, and kidney. Plasma was also analyzed.

[4] = Muscle strength of alert diabetic rats; format: in vivo; details: measured while alert, preliminary data
Description: The present invention also encompasses methods for prevention of hair loss associated with or mediated by loss of microcirculation and/or loss of neuro-innervation in populations of aging, sclerodermic and/or in diabetic individuals. This is because 3DG is a known precursor to the formation of AGEs which are known to be causally connected to the development of neuropathy. […] This supports the concept that maintenance of nerve conduction and microcirculation that supports nerve innervation is deleteriously affected not only by AGEs, but also 3DG. Similarly, where 3DG would cause blockage of the microcirculation that supports nerve innervation of the hair follicle, the hair follicle will atrophy and die, as is the case in neuropathy.Accordingly, the present invention includes methods for preventing hair loss, where such hair loss is associated with or mediated by the presence of 3DG in the skin proximal to a hair follicle/shaft.
Skin elasticity measurements were also taken on the test subjects as described above, but without sedating the test animals before measurement. FIG. 15 illustrates skin elasticity measurements taken on the hind leg of the test subjects while the subjects were alert and being restrained by a technician.
In these experiments, the animals were fiercely fighting restraint and the results are different.

[5] = parameters: species or system rats; details: rat, in vivo
Method: Two rats were injected daily with 5 μmols of either FL or mannitol (used as a control) for 5 days. The animals were sacrificed and the kidneys removed and dissected into the cortex and medulla. Tissues were homogenized in 5 volumes of 50 mM Tris-HCl containing 150 mM KCl, 15 mM MgCl2 and 5 mM DTT, pH 7.5. Cellular debris was removed by centrifugation at 10,000×g for 15 minutes, and the supernatant was then centrifuged at 150,000×g for 70 minutes. The soluble proteins were analyzed by SDS PAGE on 12% polyacrylamide gels as well as on 4-15 and 10-20% gradient gels.

mouse mesangial cells = assay: Type IV collagen production in kidney cells in vitro; format: cell-based
Method: Type IV collagen production was measured in mouse mesangial cells. Controls (grown with […]) produced 300 ng of Type IV collagen per 10,000 cells, whereas fructoselysine treated cells (5 or 10 mM fructoselysine with 10 mM glucose) produced 560 and 1100 ng/10,000 cells.

[6] = parameters: species or system human; details: in vivo
Method: Volunteers spent two days on a fructoselysine-free diet and then consumed 22.5 g of the food product prepared as described herein, thus effectively receiving a 2 gram dose of fructoselysine. Urine was collected at 2 hour intervals for 14 hours and a final collection was made at 24 hours. FL was measured by HPLC with a Waters 996 diode Array using a Waters C18 Free Amino Acid column at 46° C. and a gradient elution system of acetonitrile-methyl alcohol-water (45:15:40) into acetonitrile-sodium acetate-water (6:2:92) at 1 ml/min. Quantitation employed an internal standard of meglumine. 3DF was measured by HPLC after deionization of the sample. Analyses were performed on a Dionex DX-500 HPLC system employing a PA1 column (Dionex) and eluting with 32 mM sodium hydroxide at 1 ml/min. Quantitation was performed from standard curves obtained daily with synthetic 3DF. 3DG was measured by GC-MS after deionization of the sample. 3DG was derivatized with a 10-fold excess of diaminonaphthalene in PBS. Ethyl acetate extraction gave a salt free fraction which was converted to the trimethyl silyl ethers with Tri-Sil (Pierce). Analysis was performed on a Hewlett-Packard 5890 selected ion monitoring GC-MS system. […] Quantitation of 3DG employed selected ion monitoring using an internal standard of U-13C-3DG.

T1 sequence (P02453 162-1217 limits assumed): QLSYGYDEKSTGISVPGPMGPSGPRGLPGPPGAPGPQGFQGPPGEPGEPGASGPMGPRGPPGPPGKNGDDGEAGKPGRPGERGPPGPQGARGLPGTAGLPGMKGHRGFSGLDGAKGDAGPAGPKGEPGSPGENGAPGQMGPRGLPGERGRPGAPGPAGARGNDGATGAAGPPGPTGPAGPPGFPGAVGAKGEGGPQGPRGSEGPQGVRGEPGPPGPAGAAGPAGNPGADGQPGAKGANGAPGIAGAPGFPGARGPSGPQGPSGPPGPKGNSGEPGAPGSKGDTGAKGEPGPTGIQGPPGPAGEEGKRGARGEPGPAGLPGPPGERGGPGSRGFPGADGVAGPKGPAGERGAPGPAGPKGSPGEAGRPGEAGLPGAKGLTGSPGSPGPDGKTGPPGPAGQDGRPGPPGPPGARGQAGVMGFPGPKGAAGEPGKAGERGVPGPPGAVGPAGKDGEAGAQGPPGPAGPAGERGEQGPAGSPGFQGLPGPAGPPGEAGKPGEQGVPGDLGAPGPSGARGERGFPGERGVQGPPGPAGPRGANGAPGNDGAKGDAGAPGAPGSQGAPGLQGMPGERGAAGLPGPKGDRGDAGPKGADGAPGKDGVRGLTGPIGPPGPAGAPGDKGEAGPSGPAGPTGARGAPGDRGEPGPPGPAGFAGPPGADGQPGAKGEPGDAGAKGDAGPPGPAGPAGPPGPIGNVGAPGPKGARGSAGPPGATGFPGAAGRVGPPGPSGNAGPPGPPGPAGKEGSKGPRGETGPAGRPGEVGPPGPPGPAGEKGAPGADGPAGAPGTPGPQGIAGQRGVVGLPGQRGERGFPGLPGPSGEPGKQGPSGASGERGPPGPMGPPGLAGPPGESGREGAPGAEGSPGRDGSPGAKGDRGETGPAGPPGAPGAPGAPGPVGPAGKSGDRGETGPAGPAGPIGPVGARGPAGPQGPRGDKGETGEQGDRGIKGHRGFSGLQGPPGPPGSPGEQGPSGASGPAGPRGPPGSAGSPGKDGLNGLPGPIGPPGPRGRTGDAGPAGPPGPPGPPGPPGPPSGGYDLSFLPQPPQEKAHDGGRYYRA
T1 sequence (P02465 80-1117 limits assumed): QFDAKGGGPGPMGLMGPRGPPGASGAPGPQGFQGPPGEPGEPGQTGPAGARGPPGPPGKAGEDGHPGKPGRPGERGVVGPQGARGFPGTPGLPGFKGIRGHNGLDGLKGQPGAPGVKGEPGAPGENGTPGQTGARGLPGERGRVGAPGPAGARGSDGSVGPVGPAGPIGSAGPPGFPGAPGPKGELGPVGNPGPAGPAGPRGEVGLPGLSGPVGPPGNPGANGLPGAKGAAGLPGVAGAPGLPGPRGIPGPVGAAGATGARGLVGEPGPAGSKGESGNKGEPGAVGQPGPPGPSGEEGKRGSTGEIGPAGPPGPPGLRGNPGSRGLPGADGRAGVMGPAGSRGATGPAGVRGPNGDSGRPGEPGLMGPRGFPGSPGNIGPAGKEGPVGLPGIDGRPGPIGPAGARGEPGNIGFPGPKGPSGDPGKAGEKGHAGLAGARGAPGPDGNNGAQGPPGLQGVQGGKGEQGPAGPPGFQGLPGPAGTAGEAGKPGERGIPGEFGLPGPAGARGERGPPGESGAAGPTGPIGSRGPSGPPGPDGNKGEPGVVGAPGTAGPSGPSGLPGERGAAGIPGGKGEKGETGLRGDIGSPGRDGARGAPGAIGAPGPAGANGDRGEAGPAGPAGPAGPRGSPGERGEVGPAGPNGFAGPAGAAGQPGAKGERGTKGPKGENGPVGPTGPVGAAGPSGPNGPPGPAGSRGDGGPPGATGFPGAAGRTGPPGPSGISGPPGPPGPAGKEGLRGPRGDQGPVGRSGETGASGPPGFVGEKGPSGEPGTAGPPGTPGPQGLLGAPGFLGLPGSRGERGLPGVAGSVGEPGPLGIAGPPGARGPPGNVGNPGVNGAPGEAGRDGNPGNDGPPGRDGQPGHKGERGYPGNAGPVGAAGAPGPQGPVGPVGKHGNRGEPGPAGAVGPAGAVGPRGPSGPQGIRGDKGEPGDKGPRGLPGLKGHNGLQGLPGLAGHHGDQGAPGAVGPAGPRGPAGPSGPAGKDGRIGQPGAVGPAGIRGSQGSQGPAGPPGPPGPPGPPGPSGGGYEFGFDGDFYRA

O=CC(=O)C[C@H](O)[C@H](O)CO [3DG, 3-deoxyglucosone]
collagen crosslinking (migration on SDS-PAGE) ([1]; 5 mM 3DG): caused the collagen to migrate as if it had a higher molecular weight

COC(C(O)CNCCCCC(N)C(=O)O)C(O)C(O)CO (stereo not drawn) [DYN 12, 3-O-methyl sorbitollysine]
amount of pressure needed to displace the skin [2]: 3.2±1.2 kPA
plasma 3DG level (3DG; Diabetic rats): 0.44 ± 0.10 µM
plasma 3DG level (3DG; Non-diabetic rats): 0.13 ± 0.02 µM
compound contained in plasma ([3]; 3 hours after i.p. injection): plasma did not
% 3OMeSL recovered (injected dose recovered from urine and kidney) ([3]; individual rats, urine plus kidneys, 3 hours, listed as 3OMeSL): 91.5% and 38.8% and 96.4% and 61.2% and 53.0% and 53.3%
muscle strength vs diabetic rats not so treated [4]: stronger muscle strength

N=C(N)NCCC[C@H](N)C(=O)O [arginine]
inhibition of 3DG induced collagen crosslinking (high molecular weight bands) ([1]; 5 mM 3DG plus 10 mM arginine): fewer high molecular bands

N[C@@H](CCCCNCC(=O)[C@@H](O)[C@H](O)[C@H](O)CO)C(=O)O [fructoselysine, 1-deoxy-1-(e-aminolysine)-fructose]
soluble kidney proteins on SDS PAGE vs mannitol-injected animal [5]: lower molecular weight bands were missing or visually reduced
Type IV collagen produced (mouse mesangial cells; 5 mM fructoselysine with 10 mM glucose): 560 ng/10,000 cells
Type IV collagen produced (mouse mesangial cells; 10 mM fructoselysine with 10 mM glucose): 1100 ng/10,000 cells
time of peak 3DF excretion in urine after the FL bolus [6]: about 4 hours
